Columns and labels:
[1] = tested on: BV2 (mouse microglia) cell line; assay: pHrodo-myelin phagocytosis/cell viability high content imaging assay: phagocytosis signal; assay type: cell-based
Procedure: (§1) It is important to note that stressed cells, such as those that are dying, are prone to show an increase in phagocytosis. […] MerTK promotes phagocytosis and thus MerTK inhibition is proposed to lead to inhibition of phagocytosis.[47]
(§2) phagocytosis and cell viability simultaneously. High content imaging is performed with the
(§3) (approximately 22 hours after pHrodo-myelin addition). Three measurements are extracted
(§4) intensity increase (early apoptosis) and decrease (later apoptosis), respectively. These
and 3). […]

[2] = tested on: HMC3 (human microglia) cell line; assay: as above; assay type: cell-based
Procedure: as §1, §2, §3, §4
and 3). […]

[3] = tested on: BV2 (mouse microglia) cell line; assay: pHrodo-myelin phagocytosis/cell viability high content imaging assay: viability (cell count, nuclear area, nuclear intensity); conditions: 48 hours treatment
Procedure: (§5) All AD Informer Set compounds were tested in two immortalized microglial cell lines, murine (BV2), and human (HMC3), in a high‐content imaging assay in duplicate by the Chu lab. Experimental details and all data can be found as supporting information files.
(§6) The role of microglia in AD has been well documented and was thus chosen as a cell type in which to profile the AD Informer Set.[43], [44], [45] As an example, neuroinflammation, as detected by the presence of activated complement proteins, interleukins, cytokines, and chemokines in microglia and astrocytes, is increased early in AD and is considered pathogenic due to its chronic nature.[33], [34] Cytotoxic effects can be assessed by considering multiple parameters.
(§7) Microglial viability and phagocytosis studies: The pHrodo-myelin phagocytosis/cell viability assay, modified based on a published method, was run with immortalized BV2 (mouse microglia) and HMC3 (human microglia) cell lines in the Chu lab at IUSM. The 384-well plate high content analysis assay with BV2 and HMC3 microglial cell lines is used to quantify both phagocytosis and cell viability simultaneously. High content imaging is performed with the ArrayScan automatic imaging system and imaging analysis done with the software on the system. After allowing cells to adhere overnight, they are treated with compounds for total 48 hours including final 20 hours seeded with pHrodo-myelin (labeled phagocytosis ligand, purified […]
(§8) (approximately 22 hours after pHrodo-myelin addition). Three measurements are extracted from the assay: 1) phagocytosis signal by mean total phagocytosis spot intensity per cell, 2) total cell counts per well as the main measurement of cell viability, and 3) mean average nuclear intensity per cell as profiling of cell health since apoptotic cells showing nuclear intensity increase (early apoptosis) and decrease (later apoptosis), respectively. These measurements allow for evaluation of compound-induced phagocytosis (1) and cytotoxicity (2 and 3). Assays were carried out at a single concentration (10 μM). Idelalisib (10 μM) and cytochalasin-D (4 μM) were used as positive controls in the assay. All data, which was an average of 2 data points, was normalized to untreated wells and reported as % control, which is included in the Supporting Information both as a raw data file and summarized in the compound/gene-annotation file.

[4] = tested on: HMC3 (human microglia) cell line; assay: as above; conditions: 48 hours treatment
Procedure: as §5, §6, §7, §8

[5] = BV2 cells, 10 uM compound, 48 hours treatment, pHrodo-myelin final 20 hours
[6] = HMC3 cells, 10 uM compound, 48 hours treatment, pHrodo-myelin final 20 hours
[7] = BV2, compound 10 uM, pHrodo-myelin
[8] = HMC3, compound 10 uM, pHrodo-myelin

SMILES | 4. Phagocytosis (% control) [1, 5] [% control] | 4. Phagocytosis (% control) [2, 6] [% control] | 1. Cell count (% control) ([3]; BV2 cells, 10 uM compound) | 2. Nuclear Area (% Control) ([3]; BV2 cells, 10 uM compound) | 3. Nuclear DNA Intensity (% control) ([3]; BV2 cells, 10 uM compound) | 1. Cell count (% control) ([4]; HMC3 cells, 10 uM compound) | 2. Nuclear Area (% Control) ([4]; HMC3 cells, 10 uM compound) | 3. Nuclear DNA Intensity (% control) ([4]; HMC3 cells, 10 uM compound) | 4. Phagocytosis (% control) [1, 7] [% control] | 4. Phagocytosis (% control) [2, 8] [% control] | 1. Cell count (% control) ([3]; BV2, compound 10 uM) | 2. Nuclear Area (% Control) ([3]; BV2, compound 10 uM) | 3. Nuclear DNA Intensity (% control) ([3]; BV2, compound 10 uM) | 1. Cell count (% control) ([4]; HMC3, compound 10 uM) | 2. Nuclear Area (% Control) ([4]; HMC3, compound 10 uM) | 3. Nuclear DNA Intensity (% control) ([4]; HMC3, compound 10 uM)
O=c1[nH]c(=O)n([C@H]2C[C@H](O)[C@@H](CO)O2)cc1/C=C/Br [UNC10100235A] | 118.4 | 83.2 | 94.9 | 117.1 | 94.6 | 104.1 | 100.7 | 100.8 |  |  |  |  |  |  |  | 
O=C1CCc2cc(OCCCCc3nnnn3C3CCCCC3)ccc2N1 [UNC10100278A] | 125.3 | 104.4 | 112.3 | 103.2 | 104.4 | 103.2 | 103.0 | 97.0 |  |  |  |  |  |  |  | 
CN(C)CCCN1c2ccccc2Sc2ccc(Cl)cc21.Cl [UNC10100309D] | 128.7 | 88.5 | 82.7 | 103.4 | 99.3 | 119.8 | 102.8 | 91.9 |  |  |  |  |  |  |  | 
Clc1ccccc1C(c1ccccc1)(c1ccccc1)n1ccnc1 [UNC10100375A] |  |  |  |  |  |  |  |  | 144.4 | 70.1 | 67.3 | 102.8 | 90.2 | 105.9 | 98.8 | 95.6
CC(C)(C(=O)O)c1ccc(C(O)CCCN2CCC(C(O)(c3ccccc3)c3ccccc3)CC2)cc1.Cl (stereo not shown) [UNC10100548A] | 106.0 | 96.5 | 104.5 | 103.6 | 104.0 | 137.5 | 98.8 | 98.9 |  |  |  |  |  |  |  | 
CC(=O)N1CCN(c2ccc(OC[C@H]3CO[C@](Cn4ccnc4)(c4ccc(Cl)cc4Cl)O3)cc2)CC1 [UNC10100724A] | 280.0 | 144.4 | 129.7 | 103.8 | 104.7 | 125.5 | 96.3 | 100.1 |  |  |  |  |  |  |  | 
COc1cc([C@@H]2c3cc4c(cc3[C@H](O)[C@H]3COC(=O)[C@H]23)OCO4)cc(OC)c1OC [UNC10100984A] | 197.0 | 32.6 | 10.9 | 112.2 | 112.7 | 62.5 | 67.2 | 227.6 |  |  |  |  |  |  |  | 
O=c1[nH]c2ccccc2n1C1CCN(CCCC(c2ccc(F)cc2)c2ccc(F)cc2)CC1 [UNC10101002A] |  |  |  |  |  |  |  |  | 134.9 | 140.6 | 77.1 | 99.5 | 98.4 | 97.6 | 104.3 | 96.0
CC/C(=C(\c1ccccc1)c1ccc(OCCN(C)C)cc1)c1ccccc1 [UNC10101258B] |  |  |  |  |  |  |  |  | 320.1 | 72.6 | 72.9 | 98.7 | 95.7 |  | 95.6 | 91.8
CN1CCN(CCCN2c3ccccc3Sc3ccc(C(F)(F)F)cc32)CC1.Cl.Cl [UNC10101287D] |  |  |  |  |  |  |  |  | 137.1 | 45.4 | 26.5 | 111.5 | 99.8 | 79.4 | 102.6 | 95.6
CCCCc1nc(Cl)c(CO)n1Cc1ccc(-c2ccccc2-c2nn[nH]n2)cc1 [UNC10121212D] | 120.9 | 86.3 | 142.4 | 103.1 | 105.8 | 117.8 | 104.2 | 96.6 |  |  |  |  |  |  |  | 
COc1cc(C(=O)NS(=O)(=O)c2ccccc2C)ccc1Cc1cn(C)c2ccc(NC(=O)OC3CCCC3)cc12 [UNC10121228A] | 129.0 | 87.2 | 90.6 | 103.2 | 103.9 | 110.1 | 100.7 | 103.6 |  |  |  |  |  |  |  | 
C=CC[C@@H]1/C=C(\C)C[C@H](C)C[C@H](OC)[C@H]2O[C@@](O)(C(=O)C(=O)N3CCCC[C@H]3C(=O)O[C@H](/C(C)=C/[C@@H]3CC[C@@H](O)[C@H](OC)C3)[C@H](C)[C@@H](O)CC1=O)[C@H](C)C[C@@H]2OC [UNC10121346A] | 195.2 | 110.2 | 60.9 | 110.1 | 115.2 | 103.0 | 100.5 | 98.5 |  |  |  |  |  |  |  | 
CN(CCOc1ccc(CC2SC(=O)NC2=O)cc1)c1ccccn1 (stereo not shown) [UNC10121399D] | 142.2 | 81.9 | 82.8 | 102.9 | 100.2 | 93.9 | 101.5 | 97.8 |  |  |  |  |  |  |  | 
CCC(=O)O[C@]1(C(=O)SCF)[C@H](C)C[C@H]2[C@@H]3C[C@H](F)C4=CC(=O)C=C[C@]4(C)[C@@]3(F)[C@@H](O)C[C@@]21C [UNC10121416A] | 95.5 | 94.0 | 84.8 | 98.6 | 113.9 | 136.9 | 109.9 | 86.5 |  |  |  |  |  |  |  | 
COc1ccc(/C=C/C(=O)c2ccc(OC)cc2OC)cc1 [UNC10121790A] | 199.6 | 97.7 | 72.4 | 107.4 | 104.1 | 66.8 | 97.3 | 138.7 |  |  |  |  |  |  |  | 

Source: article PMC9019904, “AD Informer Set: Chemical tools to facilitate Alzheimer's disease drug discovery” (Alzheimer's & Dementia : Translational Research & Clinical …, 2022)
